Activity calls are given as the source filed them.
Experiments:
[1] = molecular target: Heat shock protein HSP 90-alpha (Homo sapiens, UniProt P07900); format: functional, organism-based
Exodeoxyribonuclease V = molecular target: T1, Exodeoxyribonuclease V (Escherichia coli (strain K12), UniProt P04993+P07648+P08394); experiment: E. coli RecBCD inhibitors, dose response, counter-screen for AddAB inhibitor project, absorbance, V66 E. coli, mutant T4 phage (AID 492957); format: functional, cell-based, Escherichia coli str. K-12 substr. MG1655
T1 sequence (P04993 whole entry): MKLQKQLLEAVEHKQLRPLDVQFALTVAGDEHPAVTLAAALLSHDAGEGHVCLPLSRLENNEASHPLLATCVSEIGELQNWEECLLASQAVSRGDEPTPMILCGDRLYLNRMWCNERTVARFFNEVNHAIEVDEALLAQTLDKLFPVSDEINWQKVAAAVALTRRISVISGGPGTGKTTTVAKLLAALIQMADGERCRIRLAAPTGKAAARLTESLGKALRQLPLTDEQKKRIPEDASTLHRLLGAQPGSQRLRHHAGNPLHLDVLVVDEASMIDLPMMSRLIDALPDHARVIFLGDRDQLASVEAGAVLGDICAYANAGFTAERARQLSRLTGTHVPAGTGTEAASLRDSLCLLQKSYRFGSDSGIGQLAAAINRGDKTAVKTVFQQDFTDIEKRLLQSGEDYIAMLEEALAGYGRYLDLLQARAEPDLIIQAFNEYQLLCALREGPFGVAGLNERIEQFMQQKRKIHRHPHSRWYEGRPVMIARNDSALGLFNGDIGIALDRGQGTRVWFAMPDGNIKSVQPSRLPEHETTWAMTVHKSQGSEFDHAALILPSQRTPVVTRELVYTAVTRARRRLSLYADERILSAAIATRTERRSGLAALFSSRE
T1 sequence (P07648 whole entry): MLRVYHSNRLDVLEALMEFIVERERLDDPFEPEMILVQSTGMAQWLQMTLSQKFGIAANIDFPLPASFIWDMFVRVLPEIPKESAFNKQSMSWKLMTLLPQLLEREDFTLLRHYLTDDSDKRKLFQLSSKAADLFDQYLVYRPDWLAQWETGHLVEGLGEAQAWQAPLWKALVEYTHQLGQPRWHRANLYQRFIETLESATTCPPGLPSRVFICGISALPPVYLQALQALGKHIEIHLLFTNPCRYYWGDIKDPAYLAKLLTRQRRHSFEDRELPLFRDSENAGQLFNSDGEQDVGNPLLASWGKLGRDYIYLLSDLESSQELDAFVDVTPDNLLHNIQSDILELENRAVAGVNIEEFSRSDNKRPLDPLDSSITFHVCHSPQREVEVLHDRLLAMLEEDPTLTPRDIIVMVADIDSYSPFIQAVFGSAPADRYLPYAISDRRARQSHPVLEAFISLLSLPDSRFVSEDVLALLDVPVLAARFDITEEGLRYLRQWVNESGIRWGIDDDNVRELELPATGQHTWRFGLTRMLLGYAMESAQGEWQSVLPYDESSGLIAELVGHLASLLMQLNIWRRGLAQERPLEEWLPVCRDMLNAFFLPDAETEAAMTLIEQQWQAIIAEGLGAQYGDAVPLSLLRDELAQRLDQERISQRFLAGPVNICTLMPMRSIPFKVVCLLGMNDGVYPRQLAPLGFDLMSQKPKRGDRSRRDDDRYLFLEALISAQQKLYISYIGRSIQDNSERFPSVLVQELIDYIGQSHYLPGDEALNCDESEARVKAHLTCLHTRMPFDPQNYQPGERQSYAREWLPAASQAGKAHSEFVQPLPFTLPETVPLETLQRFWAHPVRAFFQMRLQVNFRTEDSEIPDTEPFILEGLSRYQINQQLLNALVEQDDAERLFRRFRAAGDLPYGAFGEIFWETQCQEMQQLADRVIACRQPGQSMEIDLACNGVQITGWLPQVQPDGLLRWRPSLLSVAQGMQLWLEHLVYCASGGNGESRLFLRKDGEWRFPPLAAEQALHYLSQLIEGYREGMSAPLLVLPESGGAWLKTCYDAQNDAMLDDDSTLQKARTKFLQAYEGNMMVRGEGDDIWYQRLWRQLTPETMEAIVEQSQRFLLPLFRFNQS
T1 sequence (P08394 whole entry): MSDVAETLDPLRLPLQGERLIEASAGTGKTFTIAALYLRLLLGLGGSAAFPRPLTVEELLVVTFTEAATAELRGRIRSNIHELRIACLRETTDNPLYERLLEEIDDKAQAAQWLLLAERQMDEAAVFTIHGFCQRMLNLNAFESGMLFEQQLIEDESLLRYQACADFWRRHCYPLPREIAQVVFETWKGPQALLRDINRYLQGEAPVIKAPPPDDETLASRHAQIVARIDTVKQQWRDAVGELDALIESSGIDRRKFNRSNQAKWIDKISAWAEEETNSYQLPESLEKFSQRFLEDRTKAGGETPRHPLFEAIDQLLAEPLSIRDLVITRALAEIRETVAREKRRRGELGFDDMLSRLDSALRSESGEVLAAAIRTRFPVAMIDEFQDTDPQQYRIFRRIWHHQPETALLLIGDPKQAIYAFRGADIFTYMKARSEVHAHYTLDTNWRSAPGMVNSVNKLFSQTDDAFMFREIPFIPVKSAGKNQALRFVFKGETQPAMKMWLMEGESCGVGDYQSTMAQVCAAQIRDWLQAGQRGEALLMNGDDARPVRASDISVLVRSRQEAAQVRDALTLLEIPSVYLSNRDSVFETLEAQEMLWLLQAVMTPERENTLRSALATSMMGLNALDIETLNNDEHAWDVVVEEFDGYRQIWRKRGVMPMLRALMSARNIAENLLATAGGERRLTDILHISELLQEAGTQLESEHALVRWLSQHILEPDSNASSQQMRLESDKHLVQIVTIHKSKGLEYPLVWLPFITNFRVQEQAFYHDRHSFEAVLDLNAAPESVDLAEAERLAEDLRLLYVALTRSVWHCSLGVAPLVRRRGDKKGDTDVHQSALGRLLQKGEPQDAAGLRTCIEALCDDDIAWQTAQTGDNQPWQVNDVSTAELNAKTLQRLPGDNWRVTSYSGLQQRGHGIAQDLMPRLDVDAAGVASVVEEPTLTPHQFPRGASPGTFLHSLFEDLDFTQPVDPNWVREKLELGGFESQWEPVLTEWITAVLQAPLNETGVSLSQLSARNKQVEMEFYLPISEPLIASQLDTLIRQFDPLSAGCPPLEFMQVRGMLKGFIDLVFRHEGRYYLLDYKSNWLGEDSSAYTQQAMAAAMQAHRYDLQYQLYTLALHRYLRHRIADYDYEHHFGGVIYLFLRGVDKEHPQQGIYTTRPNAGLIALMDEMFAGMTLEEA

[2] = NIH-3T3 fibroblast cytotoxicity, dose response, cytotoxicity control, cell-based, fluorescence, Alamar Blue, secondary assay (AID 2327); format: functional;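 further: NIH-3T3 mouse fibroblasts cultured with fluconazole at 8 µg/mL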
cells = format: functional, cell-based
INS1 = experiment: beta cell apoptosis inhibitors, cytokine rescue, dose response, luminescence, retest (AID 449756); format: functional, cell-based; settings: Rattus norvegicus;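 further: cell death triggered by IL-1 beta plus TNF-alpha plus IFN-gamma mixture; protective hits raise ATP signal compared with cytokine alone wells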

COc1cccc(/C=N/Nc2ccc([N+](=O)[O-])cn2)c1O
AC50 [1]: 3.85 µM (active)
IC50 (Exodeoxyribonuclease V): > 118 µM (inactive)
EC50 [2]: 1.61 µM (inconclusive)
EC50 (cells): 5.16 µM (active)
AC50 (INS1): 2.14 µM (active)

CCc1ccc(S(=O)(=O)/N=C2\C=C(Nc3ccc(C(=O)O)cc3)C(=O)c3ccccc32)cc1
AC50 (INS1): 11.3 µM (active)

Oc1c(C(c2ccccc2Cl)N2CCCC2)ccc2cccnc12 (stereo unspecified)
AC50 [1]: 3.34 µM (active)
IC50 (Exodeoxyribonuclease V): 102 µM (inactive)
EC50 [2]: > 160 µM (inactive)
EC50 (cells): > 350 µM (not active)
AC50 (INS1): 3.41 µM (active)

From ChEMBL document CHEMBL1201862, “PubChem BioAssay data set” (2004)
